Values belong to the compound of their own block, whether it stands above or below them.
Columns and labels:
Assay type in all cases: in vivo
[1] = system: Abutilon theophrasti (ABUTH); assay: Post-emergence herbicidal action, greenhouse pot test; conditions: rated visually after about 3 weeks vs untreated controls, 100% = plants have died
Summary of the method: (§1)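 Greenhouse-grown weeds in sandy loam were sprayed post-emergence at the one-leaf stage, 2–3 weeks after sowing. Compounds were formulated as WP or EC in water with 0.5% additive at 600 l/ha, at rates of 20 g/ha or less. Visual rating after about 3 weeks used a scale from 0% (like untreated control) to 100% (plants dead).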

[2] = system: Amaranthus retroflexus (AMARE); assay: as above; conditions: rated visually after about 3 weeks vs untreated controls, 100% = plants have died
Summary of the method: as §1

[3] = system: Avena fatua (AVEFA); assay: as above; conditions: 20 g/ha, rated visually after about 3 weeks vs untreated controls, 100% = plants have died
Summary of the method: as §1

[4] = system: Hordeum murinum (HORMU); assay: as above; conditions: rated visually after about 3 weeks vs untreated controls, 100% = plants have died
Summary of the method: as §1

[5] = system: Pharbitis purpurea (PHBPU); assay: as above
Summary of the method: as §1

[6] = system: Polygonum convolvulus (POLCO); assay: as above
Summary of the method: as §1

[7] = system: Stellaria media (STEME); assay: as above
Summary of the method: as §1

[8] = system: Veronica persica (VERPE); assay: as above
Summary of the method: as §1

[9] = system: Viola tricolor (VIOTR); assay: as above
Summary of the method: as §1

[10] = system: Alopecurus myosuroides (ALOMY); assay: Post-emergence herbicidal action, greenhouse pot test (also comparative test C); conditions: rated visually after about 3 weeks vs untreated controls, 100% = plants have died
Summary of the method: (§2)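 Green parts of one-leaf-stage plants are sprayed at 600 l/ha with formulated compound plus 0.5% additive, then kept under optimum greenhouse conditions for about 3 weeks. Damage is scored visually, where 100% means dead plants and 0% means no difference from controls.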

[11] = system: Echinochloa crus-galli (ECHCG); assay: as above; conditions: for Post-emergence action at 1.25 g/ha against ECHCG in %: rated visually after about 3 weeks vs untreated controls, 100% = plants have died
Summary of the method: as §2

[12] = system: Matricaria inodora (MATIN); assay: as above
Summary of the method: as §2

[13] = system: Setaria viridis (SETVI); assay: as above; conditions: for Post-emergence action against SETVI: 20 g/ha
Summary of the method: as §2

[14] = system: Brassica napus (BRSNW); assay: Post-emergence crop plant compatibility, greenhouse pot test; conditions: 1.25 g/ha, vs untreated controls
Summary of the method: (§3)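 Crop plants grown in sandy loam in the greenhouse were sprayed post-emergence at the one-leaf stage, 2–3 weeks after sowing, with WP or EC formulations as aqueous suspension/emulsion plus 0.5% additive at 600 l/ha. Damage was rated visually about 3 weeks later versus untreated controls (0% = like control, 100% = plants dead).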

[15] = system: Triticum aestivum (TRZAS); assay: as above; conditions: vs untreated controls
Summary of the method: as §3

[16] = system: Zea mays (ZEAMX); assay: as above; conditions: vs untreated controls
Summary of the method: as §3

[17] = system: Lolium rigidum (LOLRI); assay: Post-emergence herbicidal action, greenhouse pot test; conditions: for Post-emergence action against LOLRI in %: dosage 20 g/ha
Summary of the method: as §1

[18] = system: Oryza sativa (ORYSA); assay: Post-emergence crop plant compatibility, greenhouse pot test (also comparative test C); conditions: 1.25 g/ha, vs untreated controls
Summary of the method: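 Rice and other crops sprayed post-emergence at one-leaf stage (2–3 weeks after sowing) with WP or EC formulations plus 0.5% additive at 600 l/ha water. Visual rating about 3 weeks later versus untreated controls (100% = dead, 0% = like control); suffixes a–c denote different doses.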

Post-emergence action against BRSNW (crop plant compatibility) [14]: 20%
Post-emergence action against TRZAS (crop plant compatibility) ([15]; 1.25 g/ha): 10%
Post-emergence action against TRZAS (crop plant compatibility) ([15]; 5 g/ha): 20%
Post-emergence action against ZEAMX (crop plant compatibility) ([16]; 1.25 g/ha): 20%
Compound: Cn1c(C(F)(F)F)cc(=O)n(-c2cc(Sc3ccccc3OCC(=O)OCC3CCCO3)c(Cl)cc2F)c1=O (racemic) [I.1-71]
Post-emergence action at 1.25 g/ha against ABUTH in % [1]: 100%
Post-emergence action at 5 g/ha against ABUTH in % [1]: 100%
Post-emergence action at 20 g/ha against ABUTH in % [1]: 100%
Post-emergence action at 1.25 g/ha against AMARE in % [2]: 100%
Post-emergence action at 5 g/ha against AMARE in % [2]: 100%
Post-emergence action at 20 g/ha against AMARE in % [2]: 100%
Post-emergence action at 20 g/ha against AVEFA in % [3]: 80%
Post-emergence action at 5 g/ha against HORMU in % [4]: 80%
Post-emergence action at 20 g/ha against HORMU in % [4]: 90%
Post-emergence action against PHBPU in % ([5]; dosage 1.25 g/ha): 100%
Post-emergence action against PHBPU in % ([5]; dosage 5 g/ha): 100%
Post-emergence action against PHBPU in % ([5]; dosage 20 g/ha): 100%
Post-emergence action against POLCO in % ([6]; dosage 1.25 g/ha): 100%
Post-emergence action against POLCO in % ([6]; dosage 5 g/ha): 100%
Post-emergence action against POLCO in % ([6]; dosage 20 g/ha): 100%
Post-emergence action against STEME ([7]; 1.25 g/ha): 90%
Post-emergence action against STEME ([7]; 5 g/ha): 100%
Post-emergence action against STEME ([7]; 20 g/ha): 100%
Post-emergence action against VERPE ([8]; 1.25 g/ha): 100%
Post-emergence action against VERPE ([8]; 5 g/ha): 100%
Post-emergence action against VERPE ([8]; 20 g/ha): 100%
Post-emergence action against VIOTR ([9]; 1.25 g/ha): 100%
Post-emergence action against VIOTR ([9]; 5 g/ha): 100%
Post-emergence action against VIOTR ([9]; 20 g/ha): 100%
Post-emergence action at 5 g/ha against ALOMY in % [10]: 80%
Post-emergence action at 20 g/ha against ALOMY in % [10]: 90%
Post-emergence action at 1.25 g/ha against ECHCG in % [11]: 100%
Post-emergence action against ECHCG in % ([11]; dosage 20 g/ha): 100%
Post-emergence action against MATIN in % ([12]; dosage 1.25 g/ha): 80%
Post-emergence action against MATIN in % ([12]; dosage 5 g/ha): 90%
Post-emergence action against MATIN in % ([12]; dosage 20 g/ha): 100%
Post-emergence action against SETVI [13]: 100%
Post-emergence action against SETVI in % ([13]; dosage 1.25 g/ha): 100%
Post-emergence action against SETVI in % ([13]; dosage 5 g/ha): 100%

Post-emergence action against BRSNW (crop plant compatibility) [14]: 20%
Post-emergence action against TRZAS (crop plant compatibility) ([15]; 1.25 g/ha): 20%
Post-emergence action against ZEAMX (crop plant compatibility) ([16]; 1.25 g/ha): 10%
Post-emergence action against ORYSA (crop plant compatibility) [18]: 20%
Compound: COCCOCCOC(=O)COc1ccccc1Sc1cc(-n2c(=O)cc(C(F)(F)F)n(C)c2=O)c(F)cc1Cl [I.1-23]
Post-emergence action at 1.25 g/ha against ABUTH in % [1]: 100%
Post-emergence action at 5 g/ha against ABUTH in % [1]: 100%
Post-emergence action at 20 g/ha against ABUTH in % [1]: 100%
Post-emergence action at 1.25 g/ha against AMARE in % [2]: 100%
Post-emergence action at 5 g/ha against AMARE in % [2]: 100%
Post-emergence action at 20 g/ha against AMARE in % [2]: 100%
Post-emergence action at 20 g/ha against AVEFA in % [3]: 80%
Post-emergence action at 5 g/ha against HORMU in % [4]: 80%
Post-emergence action at 20 g/ha against HORMU in % [4]: 100%
Post-emergence action against LOLRI in % [17]: 80%
Post-emergence action against PHBPU in % ([5]; dosage 1.25 g/ha): 100%
Post-emergence action against PHBPU in % ([5]; dosage 5 g/ha): 100%
Post-emergence action against PHBPU in % ([5]; dosage 20 g/ha): 100%
Post-emergence action against POLCO in % ([6]; dosage 1.25 g/ha): 100%
Post-emergence action against POLCO in % ([6]; dosage 5 g/ha): 100%
Post-emergence action against POLCO in % ([6]; dosage 20 g/ha): 100%
Post-emergence action against STEME ([7]; 1.25 g/ha): 80%
Post-emergence action against STEME ([7]; 5 g/ha): 100%
Post-emergence action against STEME ([7]; 20 g/ha): 100%
Post-emergence action against VERPE ([8]; 1.25 g/ha): 100%
Post-emergence action against VERPE ([8]; 5 g/ha): 100%
Post-emergence action against VERPE ([8]; 20 g/ha): 100%
Post-emergence action against VIOTR ([9]; 1.25 g/ha): 100%
Post-emergence action against VIOTR ([9]; 5 g/ha): 100%
Post-emergence action against VIOTR ([9]; 20 g/ha): 100%
Post-emergence action at 5 g/ha against ALOMY in % [10]: 90%
Post-emergence action at 20 g/ha against ALOMY in % [10]: 90%
Post-emergence action at 1.25 g/ha against ECHCG in % [11]: 90%
Post-emergence action against ECHCG in % ([11]; dosage 5 g/ha): 100%
Post-emergence action against ECHCG in % ([11]; dosage 20 g/ha): 100%
Post-emergence action against MATIN in % ([12]; dosage 1.25 g/ha): 80%
Post-emergence action against MATIN in % ([12]; dosage 5 g/ha): 100%
Post-emergence action against MATIN in % ([12]; dosage 20 g/ha): 100%
Post-emergence action against SETVI [13]: 100%
Post-emergence action against SETVI in % ([13]; dosage 1.25 g/ha): 100%
Post-emergence action against SETVI in % ([13]; dosage 5 g/ha): 100%

Post-emergence action against BRSNW (crop plant compatibility) [14]: 20%
Post-emergence action against ZEAMX (crop plant compatibility) ([16]; 1.25 g/ha): 10%
Post-emergence action against ZEAMX (crop plant compatibility) ([16]; 5 g/ha): 20%
Post-emergence action against ORYSA (crop plant compatibility) [18]: 10%
Compound: COCCCOC(=O)COc1ccccc1Sc1cc(-n2c(=O)cc(C(F)(F)F)n(C)c2=O)c(F)cc1Cl [I.1-26]
Post-emergence action at 1.25 g/ha against ABUTH in % [1]: 100%
Post-emergence action at 5 g/ha against ABUTH in % [1]: 100%
Post-emergence action at 20 g/ha against ABUTH in % [1]: 100%
Post-emergence action at 1.25 g/ha against AMARE in % [2]: 100%
Post-emergence action at 5 g/ha against AMARE in % [2]: 100%
Post-emergence action at 20 g/ha against AMARE in % [2]: 100%
Post-emergence action at 20 g/ha against AVEFA in % [3]: 80%
Post-emergence action at 5 g/ha against HORMU in % [4]: 80%
Post-emergence action at 20 g/ha against HORMU in % [4]: 90%
Post-emergence action at 5 g/ha against LOLRI in % ([17]; 5 g/ha, rated visually after about 3 weeks vs untreated controls, 100% = plants have died): 80%
Post-emergence action against LOLRI in % [17]: 90%
Post-emergence action against PHBPU in % ([5]; dosage 1.25 g/ha): 100%
Post-emergence action against PHBPU in % ([5]; dosage 5 g/ha): 100%
Post-emergence action against PHBPU in % ([5]; dosage 20 g/ha): 100%
Post-emergence action against POLCO in % ([6]; dosage 1.25 g/ha): 100%
Post-emergence action against POLCO in % ([6]; dosage 5 g/ha): 100%
Post-emergence action against POLCO in % ([6]; dosage 20 g/ha): 100%
Post-emergence action against STEME ([7]; 1.25 g/ha): 100%
Post-emergence action against STEME ([7]; 5 g/ha): 100%
Post-emergence action against STEME ([7]; 20 g/ha): 100%
Post-emergence action against VERPE ([8]; 1.25 g/ha): 100%
Post-emergence action against VERPE ([8]; 5 g/ha): 100%
Post-emergence action against VERPE ([8]; 20 g/ha): 100%
Post-emergence action against VIOTR ([9]; 1.25 g/ha): 100%
Post-emergence action against VIOTR ([9]; 5 g/ha): 100%
Post-emergence action against VIOTR ([9]; 20 g/ha): 100%
Post-emergence action at 5 g/ha against ALOMY in % [10]: 80%
Post-emergence action at 20 g/ha against ALOMY in % [10]: 90%
Post-emergence action at 1.25 g/ha against ECHCG in % [11]: 90%
Post-emergence action against ECHCG in % ([11]; dosage 5 g/ha): 90%
Post-emergence action against ECHCG in % ([11]; dosage 20 g/ha): 100%
Post-emergence action against MATIN in % ([12]; dosage 1.25 g/ha): 80%
Post-emergence action against MATIN in % ([12]; dosage 5 g/ha): 80%
Post-emergence action against MATIN in % ([12]; dosage 20 g/ha): 100%
Post-emergence action against SETVI [13]: 100%
Post-emergence action against SETVI in % ([13]; dosage 1.25 g/ha): 100%
Post-emergence action against SETVI in % ([13]; dosage 5 g/ha): 100%

— patent US20240025862A1, “SUBSTITUTED N-PHENYLURACILS AND SALTS THEREOF, AND USE THEREOF AS HERBICIDAL ACTIVE SUBSTANCES” (Bayer Aktiengesellschaft, priority 2020, published 2024)
